Consider 14 compounds from PubChem BioAssay (NCI).

The structures appear in SMILES notation.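 Briefly, cells in 96-well plates were exposed to five compound concentrations for 48 h, and endpoints were estimated by linear interpolation. GI50 = concentration required for 50% inhibition of growth. TGI is the concentration that stops growth completely.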

What all share (assay): NCI anticancer screen, dose series, 48 h
In assay [1] the test system is SK-OV-3 ovarian.
Assay [2] has as its system SF-268 CNS.
Assay [3] deals with HOP-92 NSCLC.
Assay [4] has as its system SK-MEL-28 melanoma.
The test system of assay [5] is NCI-H522 lung.
Assay [6] concerns PC-3 prostate.
Assay [7] relates to OVCAR-3 ovarian.
For assay [8], the system named is K-562 leukemia.
The test system of assay [9] is KM12 colon.
Assay [10] deals with HCC-2998 colon.

In the case of `Fc1ccc(Nc2nc(Nc3ccc(-c4nc5ccccc5[nH]4)cc3)nc(N3CCCC3)n2)cc1`, the GI50 in [1] was 15.9 µM; in [2], 2670 nM; in assay [3], 1760 nM; in [4], 1870 nM; in assay [5] it was 2160 nM; in assay [6], 2740 nM. Moreover, the GI50 in [7] was 2750 nM; in [8], 2310 nM; in [9], 2980 nM; in assay [10], 2.39 µM. The TGI in assay [1] is 31.6 µM; in [2], 7.99 µM; in assay [3], 5.38 µM; in assay [4], 3.66 µM; in assay [5], 4.91 µM; in [6] it was 8.05 µM. Further, the TGI in [7] came out at 6.61 µM; in assay [8], 5.35 µM; in assay [9], 10 µM; in assay [10], 6.25 µM.
On to `CCOC1NC(=O)Oc2ccccc21` (stereo not given), for which the TGI in assay [1], in [2], in assay [3], in assay [4], in [5] and in assay [6] was above 100 µM in each case. Further, the TGI in assay [7], in [8], in assay [9] and in assay [10] was above 100 µM throughout.
As to `CC(C)[C@]12O[C@H]1[C@@H]1O[C@]13[C@]1(O[C@H]1C[C@H]1c4c(C(=O)c5ccccc5)oc(OC(=O)c5ccccc5)c4CC[C@@]13C)[C@@H]2O`, the GI50 was 0.0351 µM in assay [1]; 33.8 nM in assay [2]; 64.9 nM in assay [3]; 18.4 nM in assay [4]; 16.9 nM in [5]; 35.8 nM in assay [6]. Further, the GI50 in [7] was 24.4 nM; in assay [8] it was 21.9 nM; in assay [9] it was 226 nM; in [10] it was 0.0378 µM. Moreover, the TGI was above 100 µM in assay [1]; 1.6 µM in assay [2]; 0.0612 µM in assay [4]; 0.0913 µM in assay [5]; 0.154 µM in assay [7]; 3.78 µM in [9]. The compound also showed a TGI in assay [10] of 0.355 µM.
For `O=C1c2cccnc2-c2nc(-c3ccc([N+](=O)[O-])cc3)cc3c2c1nc1ccccc13`, the GI50 in assay [1] is 11.4 µM; in assay [2], 3080 nM; in [3], 24000 nM; in assay [4] it was 12700 nM; in [5] it was 2000 nM; in assay [6], 3950 nM. Besides, the GI50 in assay [7] was 261 nM; in assay [8] it was 20700 nM; in assay [9], 3350 nM; in assay [10] it was 8 µM. Further, the TGI in assay [1] is 39 µM; in assay [2], 19.8 µM; in assay [3], 83.6 µM; in assay [4], 27.8 µM; in assay [5], 6.95 µM; in [6], above 100 µM. The TGI in assay [7] was 1.74 µM; in [8] it was above 100 µM; in assay [9] it was 19.4 µM; in assay [10], 26.5 µM.
With `COc1ccc(/C=C(/C(=O)N2CCNCC2)c2cc(OC)c(OC)c(OC)c2)cc1O`, the GI50 was 4.18 µM in [1]; 7230 nM in assay [2]; 23500 nM in [3]; 8840 nM in assay [4]; 2420 nM in [5]; 2720 nM in assay [6]. Further, the GI50 was 2450 nM in assay [7], 1600 nM in [8], 3180 nM in assay [9] and 3.76 µM in assay [10]. The TGI is above 100 µM in assay [1]; above 100 µM in assay [2]; above 100 µM in assay [3]; above 100 µM in assay [4]; 9.84 µM in assay [5]; above 100 µM in [6]. Besides, the TGI was 7.1 µM in assay [7], above 100 µM in assay [8], above 100 µM in [9] and above 100 µM in assay [10].
On to `Cn1c2ccccc2c2c3c(c4c5ccccc5n(CCCCCC#N)c4c21)C(=O)N(O)C3=O`, for which the GI50 in [1] was 0.596 µM; in [2] it was 624 nM; in [3], 1770 nM; in assay [4] it was 1720 nM; in [5] it was 268 nM; in assay [6], 2220 nM. The GI50 was 1290 nM in assay [7], 710 nM in assay [8], 1500 nM in [9] and 2.57 µM in assay [10]. Further, the TGI in assay [1] is 7.45 µM; in [2], above 100 µM; in assay [3] it was 6.99 µM; in assay [4], 9.91 µM; in assay [5] it was 1.42 µM; in [6], 8.4 µM. Besides, the TGI in assay [7] is 7.9 µM; in [8], above 100 µM; in assay [9] it was 5.95 µM; in [10], 38.5 µM.
For the compound `Cc1nc2cc(O)c(O)cc2cc1Oc1ccc(NC(=O)Nc2ccc(Cl)c(Cl)c2)cc1`, the GI50 in [1] is 11.7 µM; in assay [2] it was 8450 nM; in [3], 2850 nM; in assay [4], 9000 nM; in assay [5], 4430 nM; in assay [6] it was 4360 nM. For the same compound, the GI50 in assay [7] was 8520 nM; in assay [8], 6930 nM; in assay [9], 9640 nM; in assay [10], 6.7 µM. The TGI in [1] was above 32.5 µM; in assay [2] it was above 32.5 µM; in assay [3] it was 16.7 µM; in assay [4] it was 30.1 µM; in [5], 12.5 µM; in [6] it was above 32.5 µM. Moreover, the TGI in assay [7] stood at 19.9 µM; in [8], 29.6 µM; in assay [9], 32 µM; in assay [10], 14.6 µM.
Regarding `COc1ccc(C(=O)Nc2cccc(C3CC(=O)c4c(cc(OC)c(OC)c4OC)O3)c2)cc1` (stereo not given), the GI50 was 3.63 µM in assay [1]; 2290 nM in [2]; 1660 nM in [3]; 5130 nM in [4]; 411 nM in assay [5]; 736 nM in [6]. Moreover, the GI50 was 337 nM in [7], 367 nM in assay [8], 1080 nM in [9] and 3.46 µM in [10]. For the same compound, the TGI is 98.4 µM in [1]; above 100 µM in assay [2]; 8.31 µM in assay [3]; above 100 µM in [4]; 5.15 µM in assay [5]; 27.9 µM in assay [6]. Moreover, the TGI in assay [7] was 39.7 µM; in assay [8], above 100 µM; in assay [9] it was 14.7 µM; in assay [10], 87.1 µM.
With `C=C1C(=O)O[C@H]2[C@H]1CC/C(COC(=O)CCC(=O)OC/C1=C/CC[C@@]3(C)O[C@H]3[C@H]3OC(=O)C(=C)[C@@H]3CC1)=C\CC[C@@]1(C)O[C@@H]21`, the GI50 was 23.1 µM in assay [1]; 3180 nM in assay [2]; 710 nM in assay [3]; 1530 nM in assay [4]; 1430 nM in assay [5]; 2580 nM in [6]. The GI50 in assay [7] was 599 nM; in assay [8], 531 nM; in assay [9], 3880 nM; in assay [10], 2.13 µM. Also, the TGI in assay [1] was determined as 84.8 µM; in assay [2], 14 µM; in [3] it was 2.38 µM; in assay [4] it was 3.97 µM; in assay [5], 3.07 µM; in [6] it was 7.86 µM. For the same compound, the TGI in assay [7] stood at 1.91 µM; in assay [8], 4.34 µM; in assay [9], 16.6 µM; in assay [10], 4.4 µM.
For the compound `O=C(O)/C(Cl)=C(/Cl)C(=O)Nc1cccc(Cl)c1`, the TGI in assay [1] came out at 25.4 µM; in assay [2], 48.3 µM; in [3], 30.8 µM; in assay [4], 32.8 µM; in assay [5], 10.1 µM; in [6], 38.5 µM. The TGI in assay [7] was determined as 31.4 µM; in [8], 40.1 µM; in [9], 47.7 µM; in assay [10] it was 37.1 µM.
For the compound `O=C1NC(=NCc2ccccn2)S/C1=C\c1ccc2ncccc2c1`, the GI50 in [1] is 8.59 µM; in assay [2], 8500 nM; in assay [3], 6500 nM; in assay [4], above 23700 nM; in assay [5], 7610 nM; in [6], above 25000 nM. The GI50 in [7] was 12600 nM; in [8], 8290 nM; in assay [9] it was 13200 nM; in [10], 13.8 µM. Moreover, the TGI in [1] is above 23.5 µM; in assay [2], above 25 µM; in [3], above 21.8 µM; in assay [4], above 25 µM; in assay [5], above 18.8 µM; in [6] it was above 25 µM. Further, the TGI in [7], in assay [8], in assay [9] and in assay [10] was above 25 µM throughout.
With `CSC(=S)N/N=C(\C)c1ccccn1`, the GI50 in [1] is 0.589 µM; in [2], 349 nM; in assay [3], 1390 nM; in [4] it was 429 nM; in assay [5], 33.9 nM; in [6] it was 45.2 nM. Further, the GI50 is below 10 nM in assay [7], below 10 nM in [8], 346 nM in [9] and 0.509 µM in assay [10]. In addition, the TGI in assay [1] was 15.2 µM; in assay [2], 14.5 µM; in assay [3], 26.1 µM; in assay [4], 17.5 µM; in [5], 0.368 µM; in assay [6], above 82.2 µM. The TGI in assay [8] is 23.3 µM; in assay [9] it was 14.3 µM; in assay [10] it was 16.2 µM.
As to `Oc1ccc2ccccc2c1/C=N\Nc1ccccn1`, the GI50 in [1] was 0.64 µM; in assay [2] it was 436 nM; in assay [3] it was 403 nM; in [4] it was 8810 nM; in assay [5], 413 nM; in assay [6] it was 933 nM. Also, the GI50 in assay [7] was 349 nM; in assay [8] it was 426 nM; in [9] it was 1090 nM; in [10], 4.13 µM. The TGI is above 55 µM in assay [1]; above 100 µM in assay [2]; above 100 µM in assay [3]; above 100 µM in assay [4]; above 100 µM in assay [6]; above 56.8 µM in assay [7]. Also, the TGI in assay [8], in assay [9] and in assay [10] was above 100 µM each time.
As for `CCOc1ccc2c(c1)/C(=C\C=C\C1CC(C)C3CC(OCC)CCC3N1CC)CC(C)N2CC` (stereo not given), the GI50 in [1] was 0.596 µM; in assay [2] it was 882 nM; in [3], 1210 nM; in [4], 1360 nM; in assay [5], 852 nM; in [6], 558 nM. Moreover, the GI50 is 915 nM in assay [7], 685 nM in [8], 673 nM in assay [9] and 1.05 µM in [10]. For the same compound, the TGI in [1] was 1.92 µM; in assay [2], 2.41 µM; in [3], 2.58 µM; in assay [4], 2.86 µM; in [5], 3.08 µM; in assay [6], 2.28 µM. Further, the TGI in assay [7] came out at 2.2 µM; in assay [8] it was 2.62 µM; in [9], 1.92 µM; in [10], 2.42 µM.
